Laboratory results reported in patent US5281717A, “Epoxysuccinamic acid derivatives” (Taisho Pharmaceutical Co., Ltd., priority 1990, dated 1994).
Where two headings read alike, the source gives them in different places.

Columns and labels:
Type in all cases: biochemical
[1] = target: T1, μ CANP (Calpain I) (Homo sapiens, UniProt P07384); test: Inhibitory Activity Against CANP; conditions: pH 7.5, 30° C., preincubated 5 minutes, incubation 20 minutes, alkali-denatured casein
T1 construct: purchased Nacalai Tesque Inc
T1 sequence (P07384 2-714 limits assumed): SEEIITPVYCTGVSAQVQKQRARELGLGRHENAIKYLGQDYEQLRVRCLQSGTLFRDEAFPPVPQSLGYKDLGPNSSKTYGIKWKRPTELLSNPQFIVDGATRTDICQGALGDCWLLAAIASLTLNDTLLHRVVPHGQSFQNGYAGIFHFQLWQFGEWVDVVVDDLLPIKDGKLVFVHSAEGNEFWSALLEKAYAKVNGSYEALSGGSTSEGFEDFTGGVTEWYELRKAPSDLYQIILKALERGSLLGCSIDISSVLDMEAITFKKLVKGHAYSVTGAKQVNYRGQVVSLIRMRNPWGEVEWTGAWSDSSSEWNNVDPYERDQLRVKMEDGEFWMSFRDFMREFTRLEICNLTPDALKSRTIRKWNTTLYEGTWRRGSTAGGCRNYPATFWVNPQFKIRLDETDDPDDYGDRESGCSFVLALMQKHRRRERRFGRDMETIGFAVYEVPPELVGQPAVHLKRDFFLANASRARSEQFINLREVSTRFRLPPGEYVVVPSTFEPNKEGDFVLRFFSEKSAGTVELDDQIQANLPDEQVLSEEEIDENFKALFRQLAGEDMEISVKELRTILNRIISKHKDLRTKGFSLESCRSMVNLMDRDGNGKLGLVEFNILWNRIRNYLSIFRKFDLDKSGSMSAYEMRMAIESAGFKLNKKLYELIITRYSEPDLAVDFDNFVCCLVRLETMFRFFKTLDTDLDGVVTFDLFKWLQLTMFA
T1 sequence (P04632 1-268 partner): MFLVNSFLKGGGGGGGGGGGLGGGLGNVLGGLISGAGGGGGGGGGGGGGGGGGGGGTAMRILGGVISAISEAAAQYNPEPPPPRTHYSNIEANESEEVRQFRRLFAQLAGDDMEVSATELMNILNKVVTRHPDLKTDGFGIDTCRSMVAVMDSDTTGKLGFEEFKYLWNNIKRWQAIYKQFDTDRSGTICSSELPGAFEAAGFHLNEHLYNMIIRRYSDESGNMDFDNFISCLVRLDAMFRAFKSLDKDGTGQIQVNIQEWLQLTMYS
Description: (§1) The inhibitory activities against papain, CANP and cathepsin B were measured according to the following methods, and results are shown in Table 1.
The measurement was carried out according to the method of S. Ishiura et al (J. Biochem., vol. 84, p. 225 (1978)].
Each of 0.45 ml of the reaction solutions containing 25 mM 2-mercaptoethanol, 5 mM calcium chloride, 0.1 M sodium glycerophosphate-HCl buffer (pH 7.5), 0.24% alkali-denatured casein, 1% dimethylsulfoxide and various concentrations of the test drug was preincubated accurately at 30° C. for 5 minutes, and 50 μl of a solution containing 5 μg of μ CANP (Calpain I, produced by Nacalai Tesque Inc.) was added for starting the reaction. After exact incubation at 30° C. for 20 minutes, the reaction was stopped by addition of 0.5 ml of 10% trichloroacetic acid. After being allowed to stand at room temperature for 60 minutes, the mixture was centrifuged at 3000 × g for 5 minutes, and the absorbance at 280 nm of the supernatant was determined. The remaining activity was obtained by reducing the blank value which was obtained in a similar manner to the above but adding 10% trichloroacetic acid prior to addition of μ CANP from the above value. […]

[2] = target: T2, papain (Carica papaya, UniProt P00784); test: Inhibitory Activity Against Papain
T2 construct: purchased Sigma Chemical Co
T2 sequence (P00784 134-345): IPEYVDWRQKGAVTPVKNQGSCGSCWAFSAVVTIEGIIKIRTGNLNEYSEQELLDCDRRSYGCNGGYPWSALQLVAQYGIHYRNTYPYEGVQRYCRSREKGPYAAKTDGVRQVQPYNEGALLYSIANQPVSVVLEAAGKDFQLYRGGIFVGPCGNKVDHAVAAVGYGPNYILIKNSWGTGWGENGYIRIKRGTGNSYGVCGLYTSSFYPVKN
Description: as §1
The measurement was carried out according to the method of A. J. Barrett et al [Biochem. J., vol. 201, p. 189 (1982)].
To each of 0.95 ml of the reaction solutions containing 2.5 mM 2-mercaptoethanol, 1 mM disodium ethylenediaminetetraacetate, 0.1 M sodium potassium phosphate buffer (pH 6.8), 0.1% Brij-35 (produced by Nacalai Tesque Inc.), 1% dimethyl sulfoxide and various concentrations of the test drug was added 25 μl of a papain solution (produced by Sigma Chemical Co.), and the mixture was preincubated at 40° C. for 3 minutes, after which 25 μl of 200 μM benzyloxycarbonyl-L-phenylalanyl-L-arginine 4-methylcoumaryl-7-amide (produced by Peptide Institute Inc.) was added for starting the reaction After incubation at 40° C. for 10 minutes, the reaction was stopped by addition of 1 ml of 100 mM sodium acetate buffer solution (pH 4.3) containing 100 mM sodium chloroacetate. The fluorescence of the liberated 7-amino-4-methylcoumarine was determined using a Shimazu fluorometer RF-5000 with excitation at 380 nm and emission measured at 440 nm. […]

[3] = target: T3, cathepsin B (Homo sapiens, UniProt P07858); test: Inhibitory Activity against Cathepsin B; conditions: pH 6.0, 40° C., preincubated 3 minutes, incubation 10 minutes, substrate benzyloxycarbonyl-L-phenylalanyl-L-arginine 4-methylcoumaryl-7-amide
T3 construct: purchased Sigma Chemical Co
Description: To each of 0.95 ml of the reaction solutions containing 2.5 mM 2-mercaptoethanol, 1 mM disodium ethylenediaminetetraacetate, 0.1 M sodium potassium phosphate buffer (pH 6.0), 0.1% Brij-35 (produced by Nacalai Tesque Inc.), 1% dimethyl sulfoxide and various concentrations of the test drug was added 25 μl of 200 nM cathepsin B solution (produced by Sigma Chemical Co.), and the mixture was preincubated at 40° C. for 3 minutes, after which 25 μl of 200 μM benzyloxycarbonyl-L-phenylalanyl-L-arginine 4-methylcoumaryl-7-amide (produced by Peptide Institute Inc.) was added for starting the reaction After incubation at 40° C. for 10 minutes, the reaction was stopped by addition of 1 ml of 100 mM sodium acetate buffer (pH 4.3) containing 100 nM sodium chloroacetate. The fluorescence of the liberated 7-amino-4-methyl-coumarine was determined using a Shimazu fluorometer RP-5000 with excitation at 380 nm and emission measured at 440 nm.

Compound | IC50 [1] [nM] | IC50 ([2]; pH 6.8, 40° C., preincubated 3 minutes, incubation 10 minutes, substrate benzyloxycarbonyl-L-phenylalanyl-L-arginine 4-methylcoumaryl-7-amide, read-out: Inhibitory Activity Value [IC50 (nM)] Papain) [nM] | IC50 [2] [nM] | IC50 [3] [nM]
CCCNC(=O)[C@H]1O[C@@H]1C(=O)N[C@H](C(=O)N1CCC[C@H]1C(=O)O)[C@@H](C)CC [Compound 1d, N-(L-3-trans-n-propylcarbamoyloxirane-2-carbonyl)-L-isoleucyl-L-proline] | > 200000 | 57400 | – | –
CCCCCNC(=O)[C@H]1O[C@@H]1C(=O)N[C@H](C(=O)N1CCC[C@H]1C(=O)O)[C@@H](C)CC [Compound 8d] | > 200000 | – | 26000 | 32
